Measurements taken from ChEMBL document CHEMBL1201862, “PubChem BioAssay data set” (2004).
Active and inactive are the calls of the source.

What was measured:
X-box-binding protein 1 = X-box-binding protein 1 (Homo sapiens, UniProt P17861); assay type: functional, Cricetulus griseus;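 further: confirmatory dose-response counter-screen serving a CHOP assay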
[1] = microbe, parasite or virus in culture; assay type: functional; settings: Mycobacterium tuberculosis
cells [2] = assay type: functional, cell-based
cells [3] = assay type: functional, cell-based; remark: listed apart in the source
[4] = molecular target: Acyl-homoserine lactone acylase PvdQ (Pseudomonas aeruginosa (strain LESB58), UniProt Q9I194); assay: PvdQ acylase enzyme activity blockers – biochemical, fluorescence, plate reader and imaging, cherry-picks, dose response (AID 493231)
Nonstructural protein 1 = Nonstructural protein 1 (Influenza A virus, UniProt Q194T2); assay type: functional, Influenza A virus (A/California/07/2009(H1N1))
Wee1-like protein kinase = Wee1-like protein kinase (Homo sapiens, UniProt P30291); assay: HeLa cell cycle G2/M accumulation – FACS, mechanism study for Wee1 degradation inhibitor project, late-stage follow-up, panel member Wee1 Degradation (AID 2088)
[5] = molecular target: G2/mitotic-specific cyclin-B1 (Homo sapiens, UniProt P14635); assay: HeLa cell cycle G2/M accumulation – FACS, mechanism study for Wee1 degradation inhibitor project, late-stage follow-up, panel member Cyclin B Degradation (AID 2088)
HeLa = assay: viability loss in HeLa cells – cell-based, 24 h, cherry-picked samples, cytotoxicity control, dose response (AID 504726); assay type: functional; settings: Homo sapiens;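 further: potency for cytotoxicity as loss of luminescence signal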
[6] = molecular target: T1, Voltage-gated N-type calcium channel alpha-1B subunit/Amyloid beta A4 precursor protein-binding family A member 1 (Homo sapiens, UniProt Q00975+Q02410); assay: disruptors of Mint-PDZ/N-type channel peptide interaction – biochemical, HTRF, set 2, SAR follow-up (AID 434980); assay type: functional
SUMO E1/E2 = SUMO E1/E2 (Homo sapiens, UniProt P63279+Q9UBE0+Q9UBT2); assay: SAR analysis of SUMOylation using HTRF in an in-Vitro dose response assay. [Related pubchem assays (depositor defined):AID2006, AID2011, AID2018, AID2069, AID2658]; assay type: functional
[7] = molecular target: T1, Voltage-gated N-type calcium channel alpha-1B subunit/Amyloid beta A4 precursor protein-binding family A member 1; assay: disruptors of Mint-PDZ/N-type channel peptide interaction – biochemical, HTRF, SAR follow-up (AID 2489); assay type: functional
Beta-galactosidase = Beta-galactosidase (Escherichia coli, UniProt Q8VNN2); assay: detection-enzyme interference by beta-gal modulators – biochemical, E. coli enzyme, set 3, artefact control for CCR6 antagonist project, dose response (AID 504712); assay type: functional
INS1 = assay: INS-1E survival protection against cytokine death – cell-based, luminescence, retest, dose response (AID 449756); assay type: functional; settings: Rattus norvegicus;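 further: cell death triggered by IL-1 beta plus TNF-alpha plus IFN-gamma mixture; protective hits raise ATP signal compared with cytokine alone wells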
[8] = system: Streptococcus sp. 'group A'; assay: Streptococcus pyogenes SK(-)GAS viability under kanamycin – luminescence, BacTiterGlo, confirmation, counter-screen for streptokinase expression inhibitor project, dose response (AID 1900); assay type: functional, organism-based
Streptococcus = assay: GAS UMAA2166 growth inhibition – luminescence, BacTiterGlo, counter-screen for streptokinase expression inhibitor project, dose response (AID 1915); assay type: functional, organism-based;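 further: potency for reduction of bacterial viability or growth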
[9] = molecular target: C-C chemokine receptor type 6 (Homo sapiens, UniProt P51684); assay: antagonism of CCR6 beta-arrestin recruitment – cell-based, luminescent beta-arrestin readout, dose response (AID 504728); assay type: functional

G2/mitotic-specific cyclin-B1, sequence (P14635 whole entry): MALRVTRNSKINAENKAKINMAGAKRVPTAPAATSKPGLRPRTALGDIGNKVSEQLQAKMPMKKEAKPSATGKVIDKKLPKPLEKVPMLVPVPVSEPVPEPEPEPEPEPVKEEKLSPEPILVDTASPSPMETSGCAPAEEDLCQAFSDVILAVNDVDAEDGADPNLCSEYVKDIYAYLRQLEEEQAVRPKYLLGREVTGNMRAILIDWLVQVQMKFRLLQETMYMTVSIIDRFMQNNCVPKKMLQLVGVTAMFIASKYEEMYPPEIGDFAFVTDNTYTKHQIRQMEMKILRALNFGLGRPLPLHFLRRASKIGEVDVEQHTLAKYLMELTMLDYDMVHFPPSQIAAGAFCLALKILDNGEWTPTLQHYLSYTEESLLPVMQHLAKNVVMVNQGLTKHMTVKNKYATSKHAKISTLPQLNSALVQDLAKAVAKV
Wee1-like protein kinase, sequence (P30291 whole entry): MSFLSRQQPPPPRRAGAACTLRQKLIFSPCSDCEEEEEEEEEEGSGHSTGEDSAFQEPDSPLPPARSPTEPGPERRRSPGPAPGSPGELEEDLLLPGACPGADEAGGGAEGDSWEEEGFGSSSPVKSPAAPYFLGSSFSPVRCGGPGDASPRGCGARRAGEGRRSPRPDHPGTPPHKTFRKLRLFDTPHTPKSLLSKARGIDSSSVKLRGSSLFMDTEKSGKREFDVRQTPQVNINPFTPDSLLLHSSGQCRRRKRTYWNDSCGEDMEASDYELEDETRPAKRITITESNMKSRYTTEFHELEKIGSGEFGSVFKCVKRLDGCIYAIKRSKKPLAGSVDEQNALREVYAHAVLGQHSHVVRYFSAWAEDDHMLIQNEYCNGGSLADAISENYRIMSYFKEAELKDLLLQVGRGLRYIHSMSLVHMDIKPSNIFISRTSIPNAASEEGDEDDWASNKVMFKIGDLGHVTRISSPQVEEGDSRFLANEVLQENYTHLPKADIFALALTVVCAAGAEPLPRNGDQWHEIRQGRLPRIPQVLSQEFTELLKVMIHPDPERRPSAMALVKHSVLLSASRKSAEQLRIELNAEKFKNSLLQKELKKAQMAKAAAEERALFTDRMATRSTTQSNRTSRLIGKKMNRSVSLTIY
Acyl-homoserine lactone acylase PvdQ, sequence (Q9I194 24-193 limits assumed): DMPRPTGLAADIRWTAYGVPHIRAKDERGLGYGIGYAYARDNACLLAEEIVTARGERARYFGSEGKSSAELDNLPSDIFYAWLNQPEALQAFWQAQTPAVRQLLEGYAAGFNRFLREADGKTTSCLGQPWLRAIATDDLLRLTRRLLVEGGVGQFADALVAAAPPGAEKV
Acyl-homoserine lactone acylase PvdQ, sequence (Q9I194 217-762 limits assumed): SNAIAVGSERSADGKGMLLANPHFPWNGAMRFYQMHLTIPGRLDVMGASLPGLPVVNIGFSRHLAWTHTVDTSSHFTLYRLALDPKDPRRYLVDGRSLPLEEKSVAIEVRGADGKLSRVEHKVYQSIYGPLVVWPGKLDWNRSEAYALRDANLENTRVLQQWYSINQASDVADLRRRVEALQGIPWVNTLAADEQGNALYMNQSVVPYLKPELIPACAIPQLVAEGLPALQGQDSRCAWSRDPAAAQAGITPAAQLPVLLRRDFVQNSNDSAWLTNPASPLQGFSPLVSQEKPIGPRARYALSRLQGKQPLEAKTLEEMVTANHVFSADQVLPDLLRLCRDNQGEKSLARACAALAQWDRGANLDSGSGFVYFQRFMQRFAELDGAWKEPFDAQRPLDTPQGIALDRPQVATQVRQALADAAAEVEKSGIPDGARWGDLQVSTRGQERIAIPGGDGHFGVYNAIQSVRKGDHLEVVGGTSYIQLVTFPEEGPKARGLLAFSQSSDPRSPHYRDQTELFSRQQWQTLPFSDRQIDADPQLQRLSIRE
T1 sequence (Q00975 whole entry): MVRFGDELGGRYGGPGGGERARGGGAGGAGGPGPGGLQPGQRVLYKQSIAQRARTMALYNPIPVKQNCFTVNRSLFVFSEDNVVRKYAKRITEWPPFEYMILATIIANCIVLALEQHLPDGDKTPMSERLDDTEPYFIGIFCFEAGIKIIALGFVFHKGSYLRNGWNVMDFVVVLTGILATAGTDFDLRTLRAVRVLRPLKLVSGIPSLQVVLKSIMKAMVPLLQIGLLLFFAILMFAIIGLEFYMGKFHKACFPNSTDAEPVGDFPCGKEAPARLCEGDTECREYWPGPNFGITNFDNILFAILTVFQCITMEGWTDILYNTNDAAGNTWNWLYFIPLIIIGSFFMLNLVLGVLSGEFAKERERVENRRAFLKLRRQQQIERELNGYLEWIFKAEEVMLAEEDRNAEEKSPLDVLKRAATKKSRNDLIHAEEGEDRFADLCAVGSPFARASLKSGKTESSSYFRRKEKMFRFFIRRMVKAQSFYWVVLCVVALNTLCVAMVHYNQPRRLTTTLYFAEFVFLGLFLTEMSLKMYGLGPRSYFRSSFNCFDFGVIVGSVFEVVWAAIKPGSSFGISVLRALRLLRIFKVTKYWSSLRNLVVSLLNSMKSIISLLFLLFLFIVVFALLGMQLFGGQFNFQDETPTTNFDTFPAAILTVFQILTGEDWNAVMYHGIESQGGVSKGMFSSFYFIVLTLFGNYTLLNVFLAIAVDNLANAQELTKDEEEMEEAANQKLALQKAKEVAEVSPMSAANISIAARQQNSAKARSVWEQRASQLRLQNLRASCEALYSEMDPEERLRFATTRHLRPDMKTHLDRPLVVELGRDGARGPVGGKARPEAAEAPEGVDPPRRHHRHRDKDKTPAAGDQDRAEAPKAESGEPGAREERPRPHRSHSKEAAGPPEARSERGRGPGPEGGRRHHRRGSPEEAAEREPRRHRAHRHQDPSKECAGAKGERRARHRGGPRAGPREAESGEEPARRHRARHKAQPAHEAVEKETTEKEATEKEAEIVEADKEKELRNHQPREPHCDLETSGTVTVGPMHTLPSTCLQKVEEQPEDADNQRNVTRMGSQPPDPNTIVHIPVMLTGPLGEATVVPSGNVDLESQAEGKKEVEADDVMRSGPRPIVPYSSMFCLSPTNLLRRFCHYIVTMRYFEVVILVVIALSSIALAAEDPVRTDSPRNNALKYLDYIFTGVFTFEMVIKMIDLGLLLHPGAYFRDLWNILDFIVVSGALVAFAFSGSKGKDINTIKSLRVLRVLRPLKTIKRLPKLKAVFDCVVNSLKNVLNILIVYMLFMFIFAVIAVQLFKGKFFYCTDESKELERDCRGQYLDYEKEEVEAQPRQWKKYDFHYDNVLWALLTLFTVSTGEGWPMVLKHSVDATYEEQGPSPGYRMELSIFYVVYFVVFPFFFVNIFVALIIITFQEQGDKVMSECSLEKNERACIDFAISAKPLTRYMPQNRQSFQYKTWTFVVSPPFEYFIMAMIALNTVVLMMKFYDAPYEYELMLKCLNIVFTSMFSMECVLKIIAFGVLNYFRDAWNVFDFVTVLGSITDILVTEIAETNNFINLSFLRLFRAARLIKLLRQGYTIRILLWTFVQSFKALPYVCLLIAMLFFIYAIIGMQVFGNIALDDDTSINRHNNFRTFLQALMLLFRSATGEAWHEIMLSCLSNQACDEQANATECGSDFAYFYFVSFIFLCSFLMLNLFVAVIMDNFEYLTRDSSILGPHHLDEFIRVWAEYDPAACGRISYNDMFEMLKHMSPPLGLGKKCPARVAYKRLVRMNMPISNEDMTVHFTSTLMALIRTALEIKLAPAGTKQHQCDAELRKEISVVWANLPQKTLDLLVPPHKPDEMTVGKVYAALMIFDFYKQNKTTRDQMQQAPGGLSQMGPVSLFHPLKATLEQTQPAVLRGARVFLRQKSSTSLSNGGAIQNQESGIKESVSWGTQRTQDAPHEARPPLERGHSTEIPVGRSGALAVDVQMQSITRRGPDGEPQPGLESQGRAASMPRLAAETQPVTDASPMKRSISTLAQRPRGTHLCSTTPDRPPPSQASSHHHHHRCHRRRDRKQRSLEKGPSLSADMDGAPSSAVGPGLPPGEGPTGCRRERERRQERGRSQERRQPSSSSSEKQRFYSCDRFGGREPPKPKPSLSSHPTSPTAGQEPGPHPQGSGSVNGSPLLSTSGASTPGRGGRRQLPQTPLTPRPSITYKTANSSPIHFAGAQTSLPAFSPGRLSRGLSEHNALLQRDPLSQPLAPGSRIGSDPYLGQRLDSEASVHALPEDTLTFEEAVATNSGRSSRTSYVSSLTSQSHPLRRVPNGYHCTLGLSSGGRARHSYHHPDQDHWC
T1 sequence (Q02410 whole entry): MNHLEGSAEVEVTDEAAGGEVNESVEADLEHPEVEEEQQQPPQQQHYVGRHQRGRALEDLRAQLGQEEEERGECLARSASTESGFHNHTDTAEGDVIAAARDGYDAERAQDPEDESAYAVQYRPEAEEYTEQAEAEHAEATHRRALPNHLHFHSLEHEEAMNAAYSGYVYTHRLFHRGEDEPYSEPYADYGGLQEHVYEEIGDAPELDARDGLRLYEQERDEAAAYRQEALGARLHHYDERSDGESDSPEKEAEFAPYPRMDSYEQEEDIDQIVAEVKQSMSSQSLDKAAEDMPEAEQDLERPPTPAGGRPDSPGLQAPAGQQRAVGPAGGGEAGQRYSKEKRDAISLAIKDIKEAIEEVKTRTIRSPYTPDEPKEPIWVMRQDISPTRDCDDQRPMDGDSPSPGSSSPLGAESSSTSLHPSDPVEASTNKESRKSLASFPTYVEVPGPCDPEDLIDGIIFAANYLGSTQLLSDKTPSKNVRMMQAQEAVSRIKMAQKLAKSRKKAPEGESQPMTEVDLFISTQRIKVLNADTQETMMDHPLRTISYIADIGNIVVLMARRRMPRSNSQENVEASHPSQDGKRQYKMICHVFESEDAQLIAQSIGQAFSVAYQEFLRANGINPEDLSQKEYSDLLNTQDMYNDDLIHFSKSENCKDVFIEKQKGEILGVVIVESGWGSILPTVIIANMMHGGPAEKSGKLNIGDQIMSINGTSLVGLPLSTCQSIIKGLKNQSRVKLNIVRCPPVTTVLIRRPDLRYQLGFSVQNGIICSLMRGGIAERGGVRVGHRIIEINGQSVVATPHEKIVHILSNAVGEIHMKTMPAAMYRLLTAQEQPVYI

## Cc1ccc(C2CN(C)C3(C(=O)Nc4ccccc43)C23COc2ccccc2C3=O)cc1 (stereo not given)
X-box-binding protein 1
  Absolute IC50 (XBP1): 10 µM
[1]
  CC50: > 40 µM (active)

## CCOC(=O)N1CCN(c2ccc(Cl)c(Cl)c2)CC1
Cells [2]
  EC50: > 350 µM (not active)
Cells [3]
  EC50: > 350 µM (not active)
[4]
  AC50: 25.5 µM (active)

## Nc1ccc(OCc2ccccc2)cc1[N+](=O)[O-]
Nonstructural protein 1
  IC50: 58.3 µM (active)
[4]
  AC50: 12.5 µM (active)

## Cc1cccc(NC(=O)COc2cc(=O)n(C)c3ccccc23)n1
Wee1-like protein kinase
  EC50: > 49.7 µM (inactive)
[5]
  EC50: > 49.7 µM (inactive)

## C=CC[C@@H](CC(=O)N(CCO)Cc1ccccc1)C(=O)NC[C@H](OC(=O)[C@@H](CC=C)CC(=O)OC(C)(C)C)c1ccccc1
HeLa
  AC50: 57.2 µM (active)

## CCc1ccccc1NC(=O)CCCOc1cc(=O)n(C)c2ccccc12
Wee1-like protein kinase
  EC50: > 49.7 µM (inactive)
[5]
  EC50: > 49.7 µM (inactive)

## COc1ccc(CNC(=O)CCOC(=O)c2cc(-c3ccco3)nc3ccccc23)cc1
[6]
  IC50: 14.4 µM (active)
SUMO E1/E2
  IC50: 29.6 µM (active)
[7]
  IC50: 20.8 µM (active)

## CN(C)c1nc(N/N=C/c2ccccc2O)nc(Nc2ccc(F)cc2)n1
Beta-galactosidase
  IC50: > 66.6 µM (inactive)
INS1
  AC50: 3.59 µM (active)
[8]
  EC50: 3.62 µM (active)
Streptococcus
  EC50: 5.81 µM (active)
[9]
  IC50: > 66.6 µM (inactive)
